For the experiment, the system named is 229E human corona virus (hCoV). As to the kind of experiment: 229E live virus assay (CPE, ATPlite readout in MRC-5 cells). It is filed as cell-based, hCoV-229E. Conditions: Human coronavirus 229E, MRC5, hCoV-229E live virus, MOI 0.05, ATPlite readout, run in duplicate. For orientation: ATP-based viability assays read luminescence as a measure of living cells.
`CC(C)C[C@@H](C(=O)N1C[C@]2(C[C@H]1C#N)C(=O)Nc1ccccc12)N(C)C(=O)c1c(Cl)ccc(Cl)c1F` [Example 169]: the EC50 (usually the concentration at which the effect is half-maximal) was below 100 nM.

`COc1cccc2[nH]c(C(=O)N[C@@H](CC3CCC3)C(=O)N3C[C@]4(C[C@H]3C#N)C(=O)Nc3ccccc34)cc12` [Example 17] came in with a half-maximal effective concentration (EC50) below 100 nM.

In turn, `CC(C)C[C@@H](C(=O)N1C[C@]2(C[C@H]1C#N)C(=O)Nc1ccccc12)N(C)C(=O)c1cccc2ncccc12` [Example 214] came in with a concentration for a half-maximal effect (EC50) below 100 nM.

As for `CC(C)C[C@@H](C(=O)N1C[C@]2(C[C@H]1C#N)C(=O)Nc1ccc(C(=O)N3CCOCC3)cc12)N(C)C(=O)c1cc2c(F)cc(F)cc2[nH]1` [Example 502, N-((S)-1-((3R,5'S)-5'-cyano-5-(morpholine-4-carbonyl)-2-oxospiro[indoline-3,3'-pyrrolidin]-1'-yl)-4-methyl-1-oxopentan-2-yl)-4,6-difluoro-N-methyl-1H-indole-2-carboxamide], the 50% effective concentration (EC50) is below 100 nM.

As for `CC(C)C[C@@H](C(=O)N1C[C@]2(C[C@H]1C#N)C(=O)Nc1ccccc12)N(C)C(=O)c1cnn(-c2ccccc2C(F)(F)F)c1` [Example 353], the EC50 was below 100 nM.

Regarding `CC(C)C[C@@H](C(=O)N1C[C@]2(C[C@H]1C=O)C(=O)Nc1ccccc12)N(C)C(=O)OCc1ccccc1` [Example 24], the EC50 is below 100 nM.

Compound `Cc1c(C(=O)N(C)[C@@H](CC(C)C)C(=O)N2C[C@]3(C[C@H]2C#N)C(=O)Nc2ccccc23)[nH]c2cc(F)cc(F)c12` [Example 47] yielded an EC50 of 100 to 1000 nM.

With `COc1cccc2[nH]c(C(=O)N[C@@H](CC(C)C)C(=O)N3C[C@]4(C[C@H]3C(=O)C(=O)NC3CCCCC3)C(=O)Nc3ccccc34)cc12` [Example 33], the concentration for a half-maximal effect (EC50) is above 1000 nM.

`CC(C)C[C@@H](C(=O)N1C[C@]2(C[C@H]1C#N)C(=O)Nc1ccccc12)N(C)C(=O)/C=C/c1ccccc1` [Example 228] came in with an EC50 below 100 nM.

`C[C@H](C(=O)N(C)[C@@H](CC(C)(C)C)C(=O)N1C[C@]2(C[C@H]1C#N)C(=O)Nc1ccccc12)c1cnn(C)c1` [Example 373] showed a concentration for a half-maximal effect (EC50) of 100 to 1000 nM.

In turn, `CC(C)C[C@@H](C(=O)N1C[C@]2(C[C@H]1C#N)C(=O)Nc1ccccc12)N(C)C(=O)c1ccc(F)c(-c2ccccc2)c1` [Example 272] had a concentration giving a half-maximal response (EC50) below 100 nM.

In turn, `COc1cccc2[nH]c(C(=O)N(C)[C@@H](CC3CC3)C(=O)N3C[C@]4(C[C@H]3C#N)C(=O)Nc3ccccc34)cc12` [Example 114] came in with an EC50 below 100 nM.

In turn, `CC(C)C[C@@H](C(=O)N1C[C@]2(C[C@H]1C#N)C(=O)Nc1ccccc12)N(C)C(=O)c1[nH]c2ccccc2c1-c1ccccc1` [Example 48] showed an EC50 of 100 to 1000 nM.

In the case of `CC(C)C[C@@H](C(=O)N1C[C@]2(C[C@H]1C#N)C(=O)Nc1ccccc12)N(C)C(=O)c1cc2ccc(F)cc2[nH]1` [Example 50], the EC50 was below 100 nM.

In the case of `CC(C)C[C@@H](C(=O)N1C[C@]2(C[C@H]1C#N)C(=O)Nc1ccccc12)N(C)C(=O)c1cn(-c2cccc(Cl)c2)nn1` [Example 286], the EC50 is below 100 nM.

In turn, `CC(C)C[C@@H](C(=O)N1C[C@]2(C[C@H]1C#N)C(=O)Nc1ccc(N=[N+]=[N-])cc12)N(C)C(=O)c1cc2c(F)cc(F)cc2[nH]1` [Example 503, N-((S)-1-((3R,5'S)-5-azido-5'-cyano-2-oxospiro[indoline-3,3'-pyrrolidin]-1'-yl)-4-methyl-1-oxopentan-2-yl)-4,6-difluoro-N-methyl-1H-indole-2-carboxamide] returned an EC50 below 100 nM.

`CN(C(=O)[C@H](O)C(C)(C)C)[C@@H](CC1CC1)C(=O)N1C[C@]2(C[C@H]1C#N)C(=O)Nc1ccccc12` [Example 417] yielded a concentration giving a half-maximal response (EC50) below 100 nM.

`CC(C)(F)C[C@H](NC(=O)c1ccc(F)cc1F)C(=O)N1C[C@]2(C[C@H]1C#N)C(=O)Nc1ccc(Cl)cc12` [Example 449]: the half-maximal effective concentration (EC50) is 100 to 1000 nM.

In turn, `COc1ccc(C(=O)N(C)[C@@H](CC(C)C)C(=O)N2C[C@]3(C[C@H]2C#N)C(=O)Nc2ccccc23)cc1C(F)(F)F` [Example 181] displayed an EC50 below 100 nM.

Compound `CC(C)(C)C[C@H](NC(=O)c1cn(-c2cccc(Cl)c2)nn1)C(=O)N1C[C@]2(C[C@H]1C#N)C(=O)Nc1ccccc12` [Example 142] showed an EC50 below 100 nM.

The compound `CC(C)C[C@@H](C(=O)N1C[C@]2(C[C@H]1C#N)C(=O)Nc1ccccc12)N(C)C(=O)c1ccc2nccc(Br)c2c1` [Example 274] gave an EC50 below 100 nM.

The compound `COc1cccc2[nH]c(C(=O)N[C@@H](CC(C)C)C(=O)N3C[C@]4(C[C@H]3C(=O)C(=O)NC3CC3)C(=O)Nc3ccccc34)cc12` [Example 31] returned an EC50 of 100 to 1000 nM.

With `CC(C)N(C(=O)OC(C)(C)C)[C@@H](Cc1ccccc1)C(=O)N1C[C@]2(C[C@H]1C#N)C(=O)Nc1ccccc12` [Example 161], the EC50 is above 1000 nM.

`CC(C)CC[C@@H](C(=O)N1C[C@]2(C[C@H]1C#N)C(=O)Nc1ccccc12)N(C)C(=O)OCc1ccccc1` [Example 100] registered a concentration for a half-maximal effect (EC50) of 100 to 1000 nM.

`CC(C)C[C@@H](C(=O)N1C[C@]2(C[C@H]1C#N)C(=O)Nc1ccccc12)N(C)C(=O)c1cnc2ccccc2c1O` [Example 260] displayed a 50% effective concentration (EC50) below 100 nM.

On to `CC(C)(C)C[C@H](NC(=O)c1ccc2ncc(C(F)(F)F)cc2c1)C(=O)N1C[C@]2(C[C@H]1C#N)C(=O)Nc1ccccc12` [Example 134], for which the 50% effective concentration (EC50) was below 100 nM.

Regarding `CC(C)C[C@@H](C(=O)N1C[C@]2(C[C@H]1C#N)C(=O)Nc1ccccc12)N(C(=O)C(F)(F)F)C(C)C` [Example 432], the half-maximal effective concentration (EC50) is above 1000 nM.

`CC(C)(C)C[C@H](NC(=O)c1cc(Cl)c2ncccc2c1)C(=O)N1C[C@]2(C[C@H]1C#N)C(=O)Nc1ccccc12` [Example 138] yielded a concentration for a half-maximal effect (EC50) below 100 nM.

In the case of `CC(C)C[C@@H](C(=O)N1C[C@]2(C[C@H]1C#N)C(=O)Nc1ccccc12)N(C)C(=O)c1nc2ccccc2[nH]1` [Example 205], the concentration for a half-maximal effect (EC50) was below 100 nM.

The compound `CC(C)C[C@@H](C(=O)N1C[C@]2(C[C@H]1C(=O)CO)C(=O)Nc1ccccc12)N(C)C(=O)c1cc2c(F)cc(F)cc2[nH]1` [Example 157] returned a 50% effective concentration (EC50) of 100 to 1000 nM.

Turning to `CC(C)C[C@@H](C(=O)N1C[C@]2(C[C@H]1C#N)C(=O)Nc1ccccc12)N(C)C(=O)c1ccc(F)c2ccccc12` [Example 221], the EC50 was below 100 nM.

For the compound `CC(C)C[C@@H](C(=O)N1C[C@]2(C[C@H]1C#N)C(=O)Nc1ccc(S(C)(=O)=O)cc12)N(C)C(=O)c1cc2c(F)cc(F)cc2[nH]1` [Example 500, N-((S)-1-((3R,5'S)-5'-cyano-5-(methylsulfonyl)-2-oxospiro[indoline-3,3'-pyrrolidin]-1'-yl)-4-methyl-1-oxopentan-2-yl)-4,6-difluoro-N-methyl-1H-indole-2-carboxamide], the concentration giving a half-maximal response (EC50) was below 100 nM.

For `CC(C)C[C@@H](C(=O)N1C[C@]2(C[C@H]1C#N)C(=O)Nc1ccccc12)N(C)C(=O)c1cc2c(F)cc(F)c(F)c2[nH]1` [Example 52], the concentration giving a half-maximal response (EC50) is below 100 nM.

`CC(C)C[C@@H](C(=O)N1C[C@]2(C[C@H]1C#N)C(=O)Nc1ccccc12)N(C)C(=O)c1cccc2ccccc12` [Example 220] showed a half-maximal effective concentration (EC50) below 100 nM.

In turn, `CC(C)C[C@@H](C(=O)N1C[C@]2(C[C@H]1C#N)C(=O)Nc1ccccc12)N(C)C(=O)c1ccc2c(=O)[nH]ccc2c1` [Example 276] yielded a 50% effective concentration (EC50) below 100 nM.

`CC(C)C[C@@H](C(=O)N1C[C@]2(C[C@H]1C#N)C(=O)Nc1ccccc12)N(C)C(=O)c1ccc2cnccc2c1` [Example 216] yielded an EC50 below 100 nM.

The compound `CC(C)C[C@@H](C(=O)N1C[C@]2(C[C@H]1C#N)C(=O)Nc1ccccc12)N(C)C(=O)OCc1ccccc1` [Example 39] gave an EC50 above 1000 nM.

Compound `CC(C)C[C@@H](C(=O)N1C[C@]2(C[C@H]1C#N)C(=O)Nc1ccccc12)N(C)C(=O)c1cc2ccccc2cn1` [Example 212] displayed an EC50 below 100 nM.

Compound `CC(C)(C)C[C@H](NC(=O)c1cc(OC(F)F)c2ncccc2c1)C(=O)N1C[C@]2(C[C@H]1C#N)C(=O)Nc1ccccc12` [Example 139] returned an EC50 below 100 nM.

For the compound `CN(C(=O)OCc1ccccc1)[C@@H](CC1CCC1)C(=O)N1C[C@]2(C[C@H]1C#N)C(=O)Nc1ccccc12` [Example 89], the 50% effective concentration (EC50) was 100 to 1000 nM.

With `N#C[C@@H]1C[C@@]2(CN1C(=O)[C@H](CC1CC1)NC(=O)OCc1ccccc1)C(=O)Nc1ccccc12` [Example 4], the EC50 lay in the range of 100 to 1000 nM.

Regarding `CN(C(=O)Cc1ccncc1)[C@@H](CC(C)(C)F)C(=O)N1C[C@]2(C[C@H]1C#N)C(=O)Nc1ccc(Cl)cc12` [Example 477], the EC50 lay in the range of 100 to 1000 nM.

Compound `CC(C)(C)C[C@H](NC(=O)c1cc2c(F)cccc2[nH]1)C(=O)N1C[C@]2(C[C@H]1C#N)C(=O)Nc1ccccc12` [Example 21] registered an EC50 below 100 nM.

`CCCN(C(=O)c1cc2c(F)cccc2[nH]1)[C@@H](CC(C)C)C(=O)N1C[C@]2(C[C@H]1C#N)C(=O)Nc1ccccc12` [Example 98] returned an EC50 of 100 to 1000 nM.

`COc1cccc2[nH]c(C(=O)N(C)[C@@H](COC(C)(C)C)C(=O)N3C[C@]4(C[C@H]3C#N)C(=O)Nc3ccccc34)cc12` [Example 370] had a half-maximal effective concentration (EC50) below 100 nM.

In the case of `[2H]C([2H])([2H])N(C(=O)c1cc(OC(F)F)c2ncccc2c1)[C@@H](CC(C)(C)C)C(=O)N1C[C@]2(C[C@H]1C#N)C(=O)Nc1ccccc12` [Example 383], the EC50 was below 100 nM.

In turn, `CCCC[C@H](NC(=O)[C@H](O)c1ccc(F)cc1)C(=O)N1C[C@]2(C[C@H]1C#N)C(=O)Nc1ccccc12` [Example 419] displayed an EC50 of 100 to 1000 nM.

In the case of `CC(C)C[C@@H](C(=O)N1C[C@]2(C[C@H]1C#N)C(=O)Nc1ccccc12)N(C)C(=O)c1ccc2ncc(F)cc2c1` [Example 235], the concentration for a half-maximal effect (EC50) was below 100 nM.

`CC(C)C[C@@H](C(=O)N1C[C@]2(C[C@H]1C#N)C(=O)Nc1ccccc12)N(C)C(=O)c1cn(-c2ccc(Cl)cc2)nn1` [Example 284] came in with an EC50 below 100 nM.

Take `[2H]C([2H])([2H])N(C(=O)c1nc(-c2ccccc2)c[nH]1)[C@@H](CC(C)(C)C)C(=O)N1C[C@]2(C[C@H]1C#N)C(=O)Nc1ccccc12` [Example 376]: the 50% effective concentration (EC50) was below 100 nM.

In turn, `CC(C)C[C@@H](C(=O)N1C[C@]2(C[C@H]1C#N)C(=O)Nc1ccccc12)N(C)C(=O)c1nc2ccccc2s1` [Example 206] displayed an EC50 below 100 nM.

(Values after patent publication EP4001279A1, “NOVEL SPIROPYRROLIDINE DERIVED ANTIVIRAL AGENTS” (Enanta Pharmaceuticals, Inc., priority 2020, dated 2022).)
